Tests used:
Type in all cases: cell-based
[1] = biological target: 5-hydroxytryptamine receptor 2A (Homo sapiens, UniProt P28223); assay: (§1) Radioligand Binding Assay: The ability of the compounds to bind to the 5-HT2A, D3 and D2 receptors was determined using radioligand binding to cloned receptors selectively expressed in HEK-293 EBNA cells.
D(2) dopamine receptor = D(2) dopamine receptor (Homo sapiens, UniProt P14416); assay: as §1
D(3) dopamine receptor = D(3) dopamine receptor (Homo sapiens, UniProt P35462); assay: as §1
Chain of D(3) dopamine receptor (P35462 whole entry): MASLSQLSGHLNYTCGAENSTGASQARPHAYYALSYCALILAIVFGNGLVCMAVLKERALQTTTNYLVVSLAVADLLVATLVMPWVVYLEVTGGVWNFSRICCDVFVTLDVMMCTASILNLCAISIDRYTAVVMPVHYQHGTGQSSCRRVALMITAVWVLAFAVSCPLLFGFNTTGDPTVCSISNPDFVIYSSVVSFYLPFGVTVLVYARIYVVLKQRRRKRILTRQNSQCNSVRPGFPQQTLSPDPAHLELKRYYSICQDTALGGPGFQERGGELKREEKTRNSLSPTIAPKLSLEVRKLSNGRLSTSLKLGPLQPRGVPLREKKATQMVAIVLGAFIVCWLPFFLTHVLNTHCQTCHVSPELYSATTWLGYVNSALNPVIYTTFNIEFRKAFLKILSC

Chain of 5-hydroxytryptamine receptor 2A (P28223 whole entry): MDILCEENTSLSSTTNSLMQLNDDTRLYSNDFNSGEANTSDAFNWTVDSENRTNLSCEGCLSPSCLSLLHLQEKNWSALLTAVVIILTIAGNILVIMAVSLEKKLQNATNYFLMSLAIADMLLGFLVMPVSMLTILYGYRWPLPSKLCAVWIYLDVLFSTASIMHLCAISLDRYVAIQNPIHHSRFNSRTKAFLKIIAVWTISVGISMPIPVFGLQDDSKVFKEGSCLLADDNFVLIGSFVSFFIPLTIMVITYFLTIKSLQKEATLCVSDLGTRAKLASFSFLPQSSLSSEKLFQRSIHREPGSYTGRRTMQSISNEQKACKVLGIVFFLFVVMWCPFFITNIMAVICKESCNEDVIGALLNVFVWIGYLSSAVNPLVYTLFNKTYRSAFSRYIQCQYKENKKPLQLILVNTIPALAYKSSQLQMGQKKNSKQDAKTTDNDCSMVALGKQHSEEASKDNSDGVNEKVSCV
Chain of D(2) dopamine receptor (P14416 whole entry): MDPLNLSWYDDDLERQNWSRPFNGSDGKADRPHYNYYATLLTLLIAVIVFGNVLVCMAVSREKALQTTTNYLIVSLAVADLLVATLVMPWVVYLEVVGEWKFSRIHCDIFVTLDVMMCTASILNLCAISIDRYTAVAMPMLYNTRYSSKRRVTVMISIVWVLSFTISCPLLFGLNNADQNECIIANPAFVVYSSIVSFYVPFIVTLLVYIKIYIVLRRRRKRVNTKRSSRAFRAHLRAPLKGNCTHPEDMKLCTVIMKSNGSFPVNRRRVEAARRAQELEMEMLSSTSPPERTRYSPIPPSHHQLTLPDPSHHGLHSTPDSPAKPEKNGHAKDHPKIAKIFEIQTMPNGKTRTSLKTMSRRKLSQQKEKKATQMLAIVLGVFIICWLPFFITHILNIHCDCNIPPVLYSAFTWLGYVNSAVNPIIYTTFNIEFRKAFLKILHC

**Q.** With `CC(C)(O)C(=O)N[C@H]1CC[C@H](CCN2CCN(c3nccc4c3CCO4)CC2)CC1` as the compound, how does the Ki [1] read?
**A.** 7.82 nM

**Q.** What about the Ki (D(2) dopamine receptor) of the same compound?
**A.** 1260 nM

**Q.** And the Ki (D(3) dopamine receptor)?
**A.** 195 nM

From ChEMBL document CHEMBL3639183, “Anellated pyridine compounds” (2013)
